Source: ChEMBL document CHEMBL1130364, “3-Amino-1,2-benzisoxazoles: A new family of potent inhibitors of LTB4 binding to the human neutrophils” (Bioorg Med Chem Lett, 1997)

Columns and labels:
[1] = target: Leukotriene B4 receptor 1 (Homo sapiens) (UniProt Q15722); test: The compound was tested for inhibition of [3H]LTB4 binding to Leukotriene B4 (LTB4) receptor on the human neutrophils (PMN) at concentration of 1 uM
[2] = target: Leukotriene B4 receptor 1 (Homo sapiens) (UniProt Q15722); test: The compound was tested for inhibition of [3H]LTB4 binding to Leukotriene B4 (LTB4) receptor on the human neutrophils (PMN) at concentration of 100 nM
[3] = target: Leukotriene B4 receptor 1 (Homo sapiens) (UniProt Q15722); test: The compound was tested for inhibition of [3H]-LTB4 binding to Leukotriene B4 (LTB4) receptor on the human neutrophils (PMN) at concentration of 10 nM

Chain of Leukotriene B4 receptor 1 (Homo sapiens) (Q15722 whole entry): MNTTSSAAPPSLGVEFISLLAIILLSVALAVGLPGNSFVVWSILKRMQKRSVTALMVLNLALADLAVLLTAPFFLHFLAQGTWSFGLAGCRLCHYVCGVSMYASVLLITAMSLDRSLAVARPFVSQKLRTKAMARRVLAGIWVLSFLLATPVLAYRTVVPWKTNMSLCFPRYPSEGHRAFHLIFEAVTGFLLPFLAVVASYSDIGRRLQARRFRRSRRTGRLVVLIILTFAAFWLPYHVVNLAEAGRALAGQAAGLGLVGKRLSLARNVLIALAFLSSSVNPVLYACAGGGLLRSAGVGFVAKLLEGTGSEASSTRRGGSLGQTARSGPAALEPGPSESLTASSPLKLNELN

| Compound | inhibition [1] [%] | inhibition [2] [%] | inhibition [3] [%] |
| --- | --- | --- | --- |
| COc1cc(C(=O)N(C(C)C)C(C)C)ccc1OCCCCCOc1ccc2c(N)noc2c1 | 90 | 10 | < 10 |
| COc1cc(C(=O)N(C(C)C)C(C)C)ccc1OCCCCOc1ccc2c(N)noc2c1 | 99 | 95 | 64 |
| COc1cc(C(=O)N(C(C)C)C(C)C)ccc1OCCCOc1ccc2c(N)noc2c1 | 92 | 37 | < 10 |
